Assays:
[1] = tested on: monocytes isolated from mouse bone marrow treated with RANKL; assay: Osteoclast differentiation inhibition, TRAP staining and assay; assay type: cell-based; conditions: for cells differentiated into osteoclasts (differentiation area ratio per total area): 10 μM, RANKL, Image J; for cells differentiated into osteoclasts (differentiation area ratio per total area) / osteoclast differentiation inhibitory ability: TRAP staining; for osteoclast differentiation inhibitory ability: area of differentiated osteoclasts
Method: Macrophages were isolated from bone marrow of 8-week old C57BL/6J mice, and seeded on a 96-well plate in an amount of 1×10^4 cells per well, followed by treating the cells with osteoclast differentiation factors M-CSF and RANKL at 30 ng/ml and 50 ng/ml, respectively. At the same time, the compounds were used for treatment, followed by culturing the cells for 3 to 4 days. Thereafter, differentiation influence was evaluated through TRAP staining and cell counting. Specific experimental procedures and results are as follows.
The bone marrow of a 10-week-old female mouse was isolated from the hip bone, femur and tibia, and incubated in α-MEM medium (Gibco, 12561-056, 10% fetal bovine serum, 1% penicillin/streptomycin) containing macrophage colony stimulating factor (M-CSF, PeproTech, 315-02, 30 ng/ml) for […] so as to isolate only monocytes. The isolated monocytes were treated with receptor activator of nuclear factor kappa B ligand (RANKL, PeproTech, 315-11, 50 ng/ml) to induce osteoclast differentiation. When a morphology of fused multinuclear cells began to appear from day 3 after treatment with RANKL, the cells were differentiated into giant multinuclear cells for 4 to 6 days (see FIG. 1), and dead by cell apoptosis after 6 days.
During RANKL treatment, each PMSA compound was also used for treatment, followed by culturing the cells for 3 or 5 days to confirm the effects of inhibiting osteoclast differentiation.
1×10^4 monocytes isolated from mouse bone marrow were put into a 96-well plate and treated with RANKL and PMSA together to confirm the effect of each PMSA on osteoclast differentiation ability. Each PMSA was used for treatment by concentration. The activity of tartrate-resistant acid phosphatase (TRAP), which has increased expression during osteoclast differentiation, was confirmed using a TRAP activity assay kit (Cosmo Bio, PMC-AK04F-COS) (see FIG. 2).
Further, after staining, the multinuclear cells formed during osteoclast differentiation were observed under a microscope, and each well was photographed and a differentiation area ratio per total area was determined using Image J software. […] Specifically, at 10 μM concentration, cells were differentiated into osteoclasts by 30% when using #25 (PMSA-3-Ac), similarly, 74% using #25-C (PMSA-Ph), 63% using #25-N (PMSA-PhN), 41% using #25-PhO (PMSA-O), and only 1% using #25-D12 (PMSA-2-OMe-5-Cl), respectively. […]

CYP2C19 = CYP2C19 (Homo sapiens, UniProt P33261); assay: CYP450 drug metabolism inhibition, 2C19; assay type: in vitro ADME; conditions: criterion remaining activity >50%
Method: (§1) In order to analyze the drug metabolism of PMSA compound, ADME evaluation was requested to the Daegu-Gyeongbuk Advanced Medical industry Promotion Foundation (DGMIF). Metabolic stability of drugs using liver microsomes (microsomal stability), drug metabolism inhibitory ability by five CYP450 enzymes, plasma metabolism (plasma stability), plasma protein binding, and intestinal permeability of drugs (PAMPA, parallel artificial membrane permeability assay) were analyzed. […] Further, it was confirmed that the permeability resistance was excellent (see Table 3 below). On the other hand, for one of PMSA derivatives, that is, 2-(N-(3,5-dimethylphenyl)methylsulfinamido)-N-(2 (phenylthio)phenyl)propanamide (#25-D5), intestinal permeability of the drug (PAMPA) was not measured.

Plasma stability = assay type: in vitro ADME
Method: as §1

CYP2C9 = CYP2C9 (Homo sapiens, UniProt P11712); assay: CYP450 drug metabolism inhibition, 2C9; assay type: in vitro ADME; conditions: criterion remaining activity >50%
Method: as §1

[2] = tested on: osteoblast progenitor cells treated with hBMP2; assay: Osteoblast differentiation, ALP staining; assay type: cell-based, mouse; conditions: 7 days
Method: After collecting cells from C57BL/6J mouse calvaria at the age of 3 days, the cells were seeded on a 96-well plate in an amount of 4×10^3 cells per well, and then treated with 100 ng/ml of hBMP2 as a differentiation inducer. Simultaneously, the cells were treated with the compound of the present invention and cultured for 7 days, followed by ALP staining to assess differentiation influence. Specific experimental methods and results are as follows.
Precursor cells isolated from the mouse skull were treated with hBMP2 (Bone morphogenic protein 2, Sino biological, 10426-HNAE, 100 ng/ml) to induce differentiation into osteoblasts. Differentiated osteoblasts could be discriminated through alkaline phosphatase (ALP) staining as an osteoblast-specific protein. When the progenitor cells were treated with hBMP2, each of the 35D35 compounds was also used for treatment, followed by culturing the cells for 7 days while changing the medium every 2 to 3 days.
4×10^3 osteoblast progenitor cells were put into a 96-well plate and treated with hBMP2 to induce differentiation of osteoblasts. At this time, the cells were treated with #25 (PMSA-3-Ac) and #25-D12 (PMSA-2-OMe-5-Cl), respectively, and then cultured for 7 days.
After discarding the ethanol, the remaining product was washed with HBSS, followed by adding a NBT solution (Sigma, B1911) in an amount of 100 μl per well and staining for 15 minutes. By washing twice with water, the remaining dye was eliminated. After ALP staining, a degree of color development was measured using Image J software, and then graphed for comparison. […] In other words, it can be seen that the differentiation of osteoblasts is not affected by treatment with the PMSA compound.
Precursor cells isolated from the mouse skull were treated with hBMP2 (Bone morphogenic protein 2, Sino biological, 10426-HNAE) to induce differentiation into osteoblasts. […]
After ALP staining, the degree of color development was measured using Image J software, and then graphed for comparison. […]

Microsomal stability (H) = assay type: in vitro ADME, human; conditions: H of H/M; criterion >60%
Method: as §1

[3] = compared to group in which osteoclasts are normally differentiated

Chain of CYP2C19 (P33261 whole entry): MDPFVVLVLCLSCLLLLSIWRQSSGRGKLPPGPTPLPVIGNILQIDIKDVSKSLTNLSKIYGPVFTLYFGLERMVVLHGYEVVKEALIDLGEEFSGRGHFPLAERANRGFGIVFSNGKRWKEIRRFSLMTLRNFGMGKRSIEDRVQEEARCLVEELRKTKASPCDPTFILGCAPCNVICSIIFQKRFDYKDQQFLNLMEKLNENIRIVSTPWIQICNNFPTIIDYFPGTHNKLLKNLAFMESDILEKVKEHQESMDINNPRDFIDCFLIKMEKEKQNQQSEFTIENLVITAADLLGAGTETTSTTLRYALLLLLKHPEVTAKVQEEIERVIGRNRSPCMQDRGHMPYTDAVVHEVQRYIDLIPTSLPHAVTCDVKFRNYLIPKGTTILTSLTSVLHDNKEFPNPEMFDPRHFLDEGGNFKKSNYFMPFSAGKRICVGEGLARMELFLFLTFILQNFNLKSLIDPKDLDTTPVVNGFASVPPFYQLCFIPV
Chain of CYP2C9 (P11712 whole entry): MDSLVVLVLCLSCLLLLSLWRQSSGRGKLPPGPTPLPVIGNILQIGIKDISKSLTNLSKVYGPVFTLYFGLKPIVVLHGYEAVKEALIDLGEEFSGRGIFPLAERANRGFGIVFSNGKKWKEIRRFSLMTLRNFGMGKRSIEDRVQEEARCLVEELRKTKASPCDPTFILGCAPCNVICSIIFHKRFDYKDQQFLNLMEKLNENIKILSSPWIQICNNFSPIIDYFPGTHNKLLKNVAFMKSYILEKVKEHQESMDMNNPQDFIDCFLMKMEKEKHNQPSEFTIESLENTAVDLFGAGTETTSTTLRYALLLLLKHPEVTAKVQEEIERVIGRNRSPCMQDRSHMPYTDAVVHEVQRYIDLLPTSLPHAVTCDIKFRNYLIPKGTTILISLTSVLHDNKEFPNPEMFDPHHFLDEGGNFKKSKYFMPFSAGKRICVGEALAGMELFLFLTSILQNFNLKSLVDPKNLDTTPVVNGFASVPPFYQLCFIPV

Row | Structure (SMILES) | cells differentiated into osteoclasts (differentiation area ratio per total area) [1] [%] | osteoclast differentiation inhibitory ability [1] | CYP 2C19 remaining activity (CYP2C19) [%] | Plasma S Human 30 min (% Remaining) (Plasma stability) | Plasma S Human 120 min (% Remaining) (Plasma stability) | CYP 2C9 remaining activity (CYP2C9) [%] | osteoblast differentiation (ALP staining) [2] | Microsomal stability (>60%) H (Microsomal stability (H)) [%] | differentiation area [1, 3] | giant multinuclear cells [1, 3] | number of osteoclasts [1, 3]
1 | CC(=O)c1cccc(N(CC(=O)Nc2ccccc2Sc2ccccc2)S(C)(=O)=O)c1 [#25, 2-(N-(3-acetylphenyl)methylsulfonamido)-N-(2-(phenylthio)phenyl)acetamide] | 30 | excellent | 6.2 | 87.1 % Remaining | 97.3 % Remaining | 63.7 | did not inhibit or activate | 8.7 |  |  | 
2 | Cc1cc(C)cc(N([C@@H](C)C(=O)Nc2ccccc2Sc2ccccc2)S(C)(=O)=O)c1 [#25-D5, N^2-(3,5-dimethylphenyl)-N^2-(methylsulfonyl)-N-[2-(phenylthio)phenyl]alanineamide] |  |  | 21.7 | 100/100 % Remaining | 100/100 % Remaining | 52.4 | not affected | 10.9 | significant reduction | significant reduction | significant reduction
3 | COc1ccc(Cl)cc1N(CC(=O)Nc1ccccc1Sc1ccccc1)S(C)(=O)=O [#25-D12, 2-(N-(5-chloro-2-methoxyphenyl)methylsulfonamido)-N-(2-(phenylthio)phenyl)acetamide] | 1 | excellent | 6.3 | 98.3 % Remaining | 97.8 % Remaining | 59.8 | did not inhibit or activate | 13.9 |  |  | 

From patent US12691084B2, “Pharmaceutical composition for preventing or treating bone diseases” (INDUSTRY FOUNDATION OF CHONNAM NATIONAL UNIVERSITY, priority 2019, dated 2026)
